Columns and labels:
[1] = test system: men undergoing robotic radical prostatectomy; assay: Prospective outcome study of robotic radical prostatectomy with phenylephrine infiltration for hemostasis (57 men, IIEF >= 20): continence by pad use, potency by intercourse; type: in vivo, human
Protocol: (§1) A group of men who were in need of a prostatectomy were tested. All men undergoing robotic radical prostatectomy after June 2009 were given informed consent regard to and asked to participate in a prospective study of outcomes of robotic radical prostatectomy. Baseline data were obtained preoperatively with regard to sexual and urinary function using self-administered International Index of Erectile Function and International Prostate Symptom Score Questionnaires. Additionally, patients were asked if they had experienced intercourse, urinary incontinence or pad used in the 4 weeks prior to the initial screening visit. Only patients with a pre-operative score on the International Index of Erectile Function of greater than or equal to 20 were included in the post-operative analysis of continence and potency.
(§2) A standard method of prostatectomy was used except that hemostasis was achieved by the infiltration of phenylephrine at a concentration of 100 micrograms per milliliter into the anterior and antero lateral bladder neck (1000 micrograms), right lateral bladder neck (1,000 micrograms), left lateral bladder neck (1,000 micrograms), right prostatic vascular pedicle and neurovascular margin (1,000 micrograms) and left prostatic vascular pedicles and neurovascular margin (1,000 micrograms) for a total of 5,000 micrograms of the agent. Sharp cold dissection was then performed with either the Snap Blade or the Shears with rare spot use of bipolar cautery. Monopolar cautery was not used during any part of the procedure.
Continence was assessed in the post-operative period by pad use with one pad per day or less being considered as “socially continent.” The use of zero pads per day was considered “absolutely continent” Or “complete continence.” The time necessary to achieve each of these milestones was recorded individually for each subject. The end point of sexual recovery was intercourse, and the experience of intercourse was monitored at each post-operative visit. Intercourse was experienced by 21% of men within the 4 weeks prior to initial evaluation. […] Additional follow-up evaluations were done at 8 and 12 weeks post-operative time points. […] Intercourse at the 9 month interval (39 weeks) was established by phone interview in those men not reporting intercourse at the 6 month visit, and for whom interim follow up was not scheduled.
All patients in this study were given informed consent for participation in a prospective study of outcomes of robotic radical prostatectomy. No patients withdrew. Fifty seven (57) men among all patients operated had IIEF scores of 20 or greater. Two patients refused or were lost to follow-up for other reasons. All observations were collected in a prospective fashion and maintained in our IRB approved database of patients having robotic surgery.
Analysis of differences in means was performed by Student's t-test. The differences in proportions were calculated by the Chi-squared test. The probability of return of social continence, absolute continence, and the probability of intercourse was calculated by the Kaplan Meier function.

[2] = test system: men undergoing robotic radical prostatectomy; assay: Ongoing study of the 57 subjects plus 23 new subjects (80 men): intercourse and pad use after prostatectomy with phenylephrine infiltration; type: in vivo, human; conditions: for Intercourse: reflects use of phosphodiesterase inhibitors
Protocol: as §1, §2
Continence was assessed in the post-operative period by pad use with one pad per day or less being considered as “socially continent.” The use of zero pads per day was considered “absolutely continent” Or “complete continence.” The time necessary to achieve each of these milestones was recorded individually for each subject. The end point of sexual recovery was intercourse, and the experience of intercourse was monitored at each post-operative visit. Intercourse was experienced by 21% of men within the 4 weeks prior to initial evaluation. It is noteworthy that two (2) weeks lapsed between the surgery and the removal of the urinary catheter, thus the initial evaluation of sexual function occurred 2 weeks following removal of the catheter, or 4 weeks following surgery. Additional follow-up evaluations were done at 8 and 12 weeks post-operative time points. […] Intercourse at the 9 month interval (39 weeks) was established by phone interview in those men not reporting intercourse at the 6 month visit, and for whom interim follow up was not scheduled.
An ongoing study of the 57 subjects described above as well as an additional 23 new subjects was also performed.

[3] = 2 weeks postoperative, 57 patients
[4] = 4 weeks postoperative, 57 patients
[5] = 6 weeks postoperative, 57 patients
[6] = 8 weeks postoperative, 56 patients
[7] = 12 weeks postoperative, 55 patients
[8] = 26 weeks postoperative, 46 patients
[9] = 39 weeks postoperative, 38 patients
[10] = 52 weeks postoperative, 37 patients
[11] = 78 weeks postoperative, 23 patients
[12] = 12 weeks (3 mos) post op, 77 patients
[13] = 26 weeks (6 mos) post op, 71 patients
[14] = 39 weeks (9 mos) post op, 63 patients
[15] = 52 weeks (12 mos) post op, 53 patients
[16] = 78 weeks (1.5 yrs) post op, 30 patients
[17] = 104 weeks (2.0 yrs) post op, 14 patients
[18] = within about 52 weeks following surgery, FIG. 4

Compound: CNC[C@H](O)c1cccc(O)c1 [phenylephrine]
- Complete Continence Number (%) [1, 3]: 10 (18%) Number (%)
- Potency Number (%) [1, 3]: 7 (12%) Number (%)
- Social Continence Number (%) ([1]; 2 weeks postoperative, 57 patients, 5,000 micrograms phenylephrine infiltrated): 20 (35%) Number (%)
- Complete Continence Number (%) [1, 4]: 17 (30%) Number (%)
- Potency Number (%) [1, 4]: 12 (21%) Number (%)
- Social Continence Number (%) [1, 4]: 31 (54%) Number (%)
- Complete Continence Number (%) [1, 5]: 16 (28%) Number (%)
- Potency Number (%) [1, 5]: 14 (25%) Number (%)
- Social Continence Number (%) [1, 5]: 32 (56%) Number (%)
- Complete Continence Number (%) [1, 6]: 17 (30%) Number (%)
- Potency Number (%) [1, 6]: 15 (27%) Number (%)
- Social Continence Number (%) [1, 6]: 33 (58%) Number (%)
- Complete Continence Number (%) [1, 7]: 20 (36%) Number (%)
- Potency Number (%) [1, 7]: 23 (42%) Number (%)
- Social Continence Number (%) [1, 7]: 40 (73%) Number (%)
- Complete Continence Number (%) [1, 8]: 26 (57%) Number (%)
- Potency Number (%) [1, 8]: 24 (52%) Number (%)
- Social Continence Number (%) [1, 8]: 40 (87%) Number (%)
- Complete Continence Number (%) [1, 9]: 24 (63%) Number (%)
- Potency Number (%) [1, 9]: 20 (53%) Number (%)
- Social Continence Number (%) [1, 9]: 34 (89%) Number (%)
- subjects at risk with social continence ([1]; 52-week mark, Kaplan Meier plot FIG. 1): 100%
- Complete Continence Number (%) [1, 10]: 35 (95%) Number (%)
- Potency Number (%) [1, 10]: 34 (92%) Number (%)
- Social Continence Number (%) [1, 10]: 37 (100%) Number (%)
- subjects with complete continence ([1]; 78-week time point, Kaplan Meier plot FIG. 2): 100%
- potency following surgery ([1]; 78-week time point, Kaplan Meier plot FIG. 3): Complete potency was achieved
- Complete Continence Number (%) [1, 11]: 23 (100%) Number (%)
- Potency Number (%) [1, 11]: 23 (100%) Number (%)
- Social Continence Number (%) [1, 11]: 23 (100%) Number (%)
- Potency Number (%) ([1]; week 0 (pre-surgical baseline), 57 patients, intercourse): 51 (89%) Number (%)
- Social Continence Number (%) ([1]; week 0 (pre-surgical baseline), 57 patients, one pad per day or less): 57 (100%) Number (%)
- Complete Continence Number (%) ([1]; week 0 (pre-surgical baseline), 57 patients, zero pads per day): 57 (100%) Number (%)
- men who experienced intercourse ([1]; within the 4 weeks prior to initial evaluation (4 weeks following surgery)): 21%
- One or less pad per 24 hours ([2]; 2 weeks post op, 79 patients): 32%
- Zero Pads per 24 hours ([2]; 2 weeks post op, 79 patients): 18%
- Intercourse ([2]; 2 weeks post op, 79 patients): 10%
- One or less pad per 24 hours ([2]; 4 weeks post op, 78 patients): 49%
- Zero Pads per 24 hours ([2]; 4 weeks post op, 78 patients): 28%
- Intercourse ([2]; 4 weeks post op, 78 patients): 19%
- One or less pad per 24 hours ([2]; 6 weeks post op, 77 patients): 58%
- Zero Pads per 24 hours ([2]; 6 weeks post op, 77 patients): 27%
- Intercourse ([2]; 6 weeks post op, 77 patients): 25%
- One or less pad per 24 hours ([2]; 8 weeks post op, 77 patients): 60%
- Zero Pads per 24 hours ([2]; 8 weeks post op, 77 patients): 28%
- Intercourse ([2]; 8 weeks post op, 77 patients): 27%
- One or less pad per 24 hours [2, 12]: 73%
- Zero Pads per 24 hours [2, 12]: 36%
- Intercourse [2, 12]: 42%
- One or less pad per 24 hours [2, 13]: 89%
- Zero Pads per 24 hours [2, 13]: 52%
- Intercourse [2, 13]: 58%
- One or less pad per 24 hours [2, 14]: 92%
- Zero Pads per 24 hours [2, 14]: 65%
- Intercourse [2, 14]: 67%
- One or less pad per 24 hours [2, 15]: 100%
- Zero Pads per 24 hours [2, 15]: 85%
- Intercourse [2, 15]: 83%
- One or less pad per 24 hours [2, 16]: 100%
- Zero Pads per 24 hours [2, 16]: 83%
- Intercourse [2, 16]: 77%
- One or less pad per 24 hours [2, 17]: 100%
- Zero Pads per 24 hours [2, 17]: 93%
- Intercourse [2, 17]: 93%
- time within which social continence was achieved for all subjects ([2]; following surgery, FIG. 4): ≤ 52 weeks
- One or less pad per 24 hours ([2]; week 0 (Pre Op), 80 patients): 100%
- Zero Pads per 24 hours ([2]; week 0 (Pre Op), 80 patients): 99%
- Intercourse ([2]; week 0 (Pre Op), 80 patients): 90%
- subjects achieving absolute continence [2, 18]: more than 80%
- subjects achieving sexual function (intercourse) [2, 18]: about 80%
